Assay results from US20030105115A1, “Novel pyridopyrimidines and uses thereof” (priority 2001, published 2003).

Assay: Hydroxyapatite assay (hydroxyapatite adsorption chromatography, bone-targeting potential)
Assay type: physicochemical
Settings: corrected retention K=(retention time-void time)/void on TSK-Gel HA 1000 HPLC column; linear gradient 10 mM to 500 mM sodium phosphate, 0.15 N NaCl, pH 6.8
Excerpt: Hydroxyapatite is the principal mineral component of bone. Hydroxyapatite adsorption chromatography is used as an assay to evaluate the bone-targeting potential of both individual bone-targeting moieties (“monomers”) and of pharmaceuticals incorporating bone-targeting groups.
The rentention time of the compound is expressed in terms of K=(retention time-void time)/void. This K value is corrected using two reference compounds to correct from inter-column and inter-system variation to obtain a K′ value.
Reference Compounds: K′ values were determined for known bone targeted compounds, the bisphosphonate, alendronate and tetracycline.

K′ value: 3.7
Compound: NCCCC(O)(P(=O)(O)O)P(=O)(O)O [Alendronate, alendronate]
